Values of other authors, collected in patent publication US12252709B2, “Culture media for culturing pluripotent stem cells in suspension” (Accellta Ltd., priority 2016, dated 2025).
Read-outs that look alike come from different tables or passages of the source.

Experiments:
hESCs [1] = conditions: Matrigel matrix, seven days (Sato et al, 2004)
hESCs [2] = conditions: for background differentiation: MATRIGEL matrix

## O=C1Nc2cc(Br)ccc2/C1=C1/Nc2ccccc2/C1=N\O [BIO, 6-bromoindirubin-3′-oxime]
hESCs [1]
  maintenance of hESC properties: maintained hESC properties

## bFGF: basic fibroblast growth factor, medium supplement
hESCs [2]; serum replacement, 40 ng/ml bFGF [Xu et al, 2005b]
  background differentiation: 28%

B1: Flt-3 ligand: protein factor added to bFGF medium (protein, UniProt P49771 27-235, looked up)
Fms-related tyrosine kinase 3 …: TQDCSFQHSPISSDFAVKIRELSDYLLQDYPVTVASNLQDEELCGGLWRLVLAQRWMERLKTVAGSKMQGLLERVNTEIHFVTKCAFQPPPSCLRFVQTNISRLLQETSEQLVALKPWITRQNFSRCLELQCQPDSSTLPPPWSPRPLEATAPTAPQPPLLLLLLLPVGLLLLAAAWCLHWQRTRRRTPRPGEQVPPVPSPQDLLLVEH
hESCs [2]; as before with 75 ng/ml of Flt-3 ligand added
  differentiation: 20%

B2: Noggin: protein factor used with 40 ng/ml bFGF (protein, UniProt Q13253 28-232, looked up)
Noggin: QHYLHIRPAPSDNLPLVDLIEHPDPIFDPKEKDLNETLLRSLLGGHYDPGFMATSPPEDRPGGGGGAAGGAEDLAELDQLLRQRPSGAMPSEIKGLEFSEGLAQGKKQRLSKKLRRKLQMWLWSQTFCPVLYAWNDLGSRFWPRYVKVGSCFSKRSCSVPEGMVCKPSKSVHLTVLRWRCQRRGGQRCGWIPIQYPIISECKCSC
hESCs [2]; 40 ng/ml bFGF and 0.5 μg/ml Noggin [Xu et al, 2005]
  background differentiation: 10%
